Measurements reported in ChEMBL document CHEMBL1275483, “Staphylococcus aureus cell wall stress stimulon gene-lacZ fusion strains: potential for use in screening for cell wall-active antimicrobials” (2008).
In brackets after ≈: the same amount, converted by molar mass. Activity calls are given as the source filed them. No cut-off for these calls is given here.

Assays:
Staphylococcus aureus [1] = experiment: Induction of Ppbp2::lacZ gene expression in Staphylococcus aureus SH1000 at 0.05 ug/ml after 2 hrs by beta-galactosidase reporter gene assay relative to untreated control; type: functional
Staphylococcus aureus [2] = experiment: Induction of PlytR::lacZ gene expression in Staphylococcus aureus SH1000 at 0.05 ug/ml after 2 hrs by beta-galactosidase reporter gene assay relative to untreated control; type: functional
Staphylococcus aureus [3] = experiment: Induction of PvraSr::lacZ gene expression in Staphylococcus aureus SH1000 at 0.05 ug/ml after 2 hrs by beta-galactosidase reporter gene assay relative to untreated control; type: functional
Staphylococcus aureus [4] = experiment: Antimicrobial activity against beta-lactamase producing Staphylococcus aureus SH1000; type: functional
Staphylococcus aureus [5] = experiment: Induction of PsgtB::lacZ gene expression in Staphylococcus aureus SH1000 at 0.05 ug/ml after 2 hrs by beta-galactosidase reporter gene assay relative to untreated control; type: functional
Staphylococcus aureus [6] = experiment: Induction of PtcaA::lacZ gene expression in Staphylococcus aureus SH1000 at 0.05 ug/ml after 2 hrs by beta-galactosidase reporter gene assay relative to untreated control; type: functional
Staphylococcus aureus [7] = experiment: Induction of Ppbp2::lacZ gene expression in Staphylococcus aureus SH1000 at 150 ug/ml after 2 hrs by beta-galactosidase reporter gene assay relative to untreated control; type: functional
Staphylococcus aureus [8] = experiment: Induction of PsgtB::lacZ gene expression in Staphylococcus aureus SH1000 at 150 ug/ml after 2 hrs by beta-galactosidase reporter gene assay relative to untreated control; type: functional
Staphylococcus aureus [9] = experiment: Induction of PvraSr::lacZ gene expression in Staphylococcus aureus SH1000 at 150 ug/ml after 2 hrs by beta-galactosidase reporter gene assay relative to untreated control; type: functional
Staphylococcus aureus [10] = experiment: Induction of PtcaA::lacZ gene expression in Staphylococcus aureus SH1000 at 150 ug/ml after 2 hrs by beta-galactosidase reporter gene assay relative to untreated control; type: functional
Staphylococcus aureus [11] = experiment: Induction of PlytR::lacZ gene expression in Staphylococcus aureus SH1000 at 150 ug/ml after 2 hrs by beta-galactosidase reporter gene assay relative to untreated control; type: functional
Staphylococcus aureus [12] = experiment: Induction of PlytR::lacZ gene expression in Staphylococcus aureus SH1000 at 8 ug/ml after 2 hrs by beta-galactosidase reporter gene assay relative to untreated control; type: functional, organism-based
Staphylococcus aureus [13] = experiment: Induction of Ppbp2::lacZ gene expression in Staphylococcus aureus SH1000 at 8 ug/ml after 2 hrs by beta-galactosidase reporter gene assay relative to untreated control; type: functional, organism-based
Staphylococcus aureus [14] = experiment: Induction of PsgtB::lacZ gene expression in Staphylococcus aureus SH1000 at 8 ug/ml after 2 hrs by beta-galactosidase reporter gene assay relative to untreated control; type: functional, organism-based
Staphylococcus aureus [15] = experiment: Induction of PtcaA::lacZ gene expression in Staphylococcus aureus SH1000 at 8 ug/ml after 2 hrs by beta-galactosidase reporter gene assay relative to untreated control; type: functional, organism-based
Staphylococcus aureus [16] = experiment: Induction of Ppbp2::lacZ gene expression in Staphylococcus aureus SH1000 at 0.3 ug/ml after 0.5 hrs by beta-galactosidase reporter gene assay relative to untreated control; type: functional, organism-based
Staphylococcus aureus [17] = experiment: Induction of PvraSr::lacZ gene expression in Staphylococcus aureus SH1000 at 8 ug/ml after 2 hrs by beta-galactosidase reporter gene assay relative to untreated control; type: functional, organism-based
Staphylococcus aureus [18] = experiment: Induction of PvraSr::lacZ gene expression in Staphylococcus aureus SH1000 at 3 ug/ml after 2 hrs by beta-galactosidase reporter gene assay relative to untreated control; type: functional
Staphylococcus aureus [19] = experiment: Induction of PsgtB::lacZ gene expression in Staphylococcus aureus SH1000 at 3 ug/ml after 2 hrs by beta-galactosidase reporter gene assay relative to untreated control; type: functional
Staphylococcus aureus [20] = experiment: Induction of PlytR::lacZ gene expression in Staphylococcus aureus SH1000 at 3 ug/ml after 2 hrs by beta-galactosidase reporter gene assay relative to untreated control; type: functional
Staphylococcus aureus [21] = experiment: Induction of PtcaA::lacZ gene expression in Staphylococcus aureus SH1000 at 3 ug/ml after 2 hrs by beta-galactosidase reporter gene assay relative to untreated control; type: functional
Staphylococcus aureus [22] = experiment: Induction of Ppbp2::lacZ gene expression in Staphylococcus aureus SH1000 at 3 ug/ml after 2 hrs by beta-galactosidase reporter gene assay relative to untreated control; type: functional

CO[C@H]1/C=C/O[C@@]2(C)Oc3c(C)c(O)c4c(O)c(c(/C=N/N5CCN(C)CC5)c(O)c4c3C2=O)NC(=O)/C(C)=C\C=C\[C@H](C)[C@H](O)[C@@H](C)[C@@H](O)[C@@H](C)[C@H](OC(C)=O)[C@@H]1C [RIFAMPIN]
fold change (FC) (Staphylococcus aureus [1]): 1.9 | fold change (FC) (Staphylococcus aureus [2]): 0.98 | fold change (FC) (Staphylococcus aureus [3]): 1.2 | MIC (Staphylococcus aureus [4]): 0.05 µg/mL (≈ 0.0608 µM) | fold change (FC) (Staphylococcus aureus [5]): 1.19 | fold change (FC) (Staphylococcus aureus [6]): 0.99

N[C@@H]1CONC1=O [CYCLOSERINE]
fold change (FC) (Staphylococcus aureus [7]): 3.41 | fold change (FC) (Staphylococcus aureus [8]): 15.63 | fold change (FC) (Staphylococcus aureus [9]): 4.08 | fold change (FC) (Staphylococcus aureus [10]): 4.6 | MIC (Staphylococcus aureus [4]): 1 µg/mL (≈ 9.79 µM) | fold change (FC) (Staphylococcus aureus [11]): 3.13

Cc1onc(-c2ccccc2)c1C(=O)N[C@@H]1C(=O)N2[C@@H]1SC(C)(C)[C@@H]2C(=O)O [OXACILLIN]
Activity (Staphylococcus aureus [12]): Active | Activity (Staphylococcus aureus [13]): Active | MIC (Staphylococcus aureus [4]): 1 µg/mL (≈ 2.49 µM) | Activity (Staphylococcus aureus [14]): Active | Activity (Staphylococcus aureus [15]): Active | Activity (Staphylococcus aureus [16]): Active | Activity (Staphylococcus aureus [17]): Active

CN[C@@H]1[C@H](O[C@H]2[C@H](O[C@H]3[C@H](O)[C@@H](O)[C@H](N=C(N)N)[C@@H](O)[C@@H]3N=C(N)N)O[C@@H](C)[C@]2(O)C=O)O[C@@H](CO)[C@H](O)[C@H]1O [STREPTOMYCIN]
fold change (FC) (Staphylococcus aureus [18]): 0.96 | MIC (Staphylococcus aureus [4]): 1.5 µg/mL (≈ 2.58 µM) | fold change (FC) (Staphylococcus aureus [19]): 0.41 | fold change (FC) (Staphylococcus aureus [20]): 0.7 | fold change (FC) (Staphylococcus aureus [21]): 0.79 | fold change (FC) (Staphylococcus aureus [22]): 0.3

O=C(N[C@H](CO)[C@H](O)c1ccc([N+](=O)[O-])cc1)C(Cl)Cl [CHLORAMPHENICOL]
fold change (FC) (Staphylococcus aureus [18]): 0.88 | MIC (Staphylococcus aureus [4]): 0.5 µg/mL (≈ 1.55 µM) | fold change (FC) (Staphylococcus aureus [19]): 0.93 | fold change (FC) (Staphylococcus aureus [20]): 1.07 | fold change (FC) (Staphylococcus aureus [21]): 1.04 | fold change (FC) (Staphylococcus aureus [22]): 0.94
